In ChEMBL document CHEMBL3621145, “Synthesis of imidazothiadiazolebenzimidazole conjugates as mitochondrial apoptosis inducers” (Medchemcomm, 2014):
Activity calls are given as the source filed them. No cut-off for these calls is given here.

Key:
[1] = test system: ME-180; test: Anticancer activity against human ME180 cells by MTT assay; format: functional, cell-based
[2] = test system: A-375; test: Anticancer activity against human A375 cells by MTT assay; format: functional, cell-based
[3] = test system: DU-145; test: Anticancer activity against human DU145 cells by MTT assay; format: functional, cell-based
[4] = test system: A549; test: Anticancer activity against human A549 cells by MTT assay; format: functional, cell-based
[5] = test system: ME-180; test: Induction of apoptosis in human ME180 cells assessed as DNA fragmentation at 1 uM after 48 hrs; format: functional, cell-based
[6] = test system: ME-180; test: Induction of apoptosis in human ME180 cells assessed as late apoptotic cells at 1 uM for 24 hrs by annexin V/PI staining based flow cytometry (reference value: 5%); format: functional
[7] = test system: ME-180; test: Cell cycle arrest in human ME180 cells assessed as accumulation at G2/M phase at 1 uM after 48 hrs by FACS analysis (reference value: 13.2%); format: functional
[8] = test system: ME-180; test: Cell cycle arrest in human ME180 cells assessed as accumulation at S phase at 1 uM after 48 hrs by FACS analysis (reference value: 19.3%); format: functional
[9] = test system: ME-180; test: Cell cycle arrest in human ME180 cells assessed as accumulation at SubG1 phase at 0.5 uM after 48 hrs by FACS analysis (reference value: 7.0%); format: functional
[10] = test system: ME-180; test: Cell cycle arrest in human ME180 cells assessed as accumulation at G1 phase at 1 uM after 48 hrs by FACS analysis (reference value: 59.9%); format: functional
[11] = test system: ME-180; test: Induction of apoptosis in human ME180 cells assessed as necrotic cells at 1 uM for 24 hrs by annexin V/PI staining based flow cytometry (reference value: 11.7%); format: functional
[12] = test system: ME-180; test: Cell cycle arrest in human ME180 cells assessed as accumulation at SubG1 phase at 1 uM after 48 hrs by FACS analysis (reference value: 7.0%); format: functional
[13] = test system: ME-180; test: Cell cycle arrest in human ME180 cells assessed as accumulation at G2/M phase at 0.5 uM after 48 hrs by FACS analysis (reference value: 13.2%); format: functional
[14] = test system: ME-180; test: Cell cycle arrest in human ME180 cells assessed as accumulation at S phase at 0.5 uM after 48 hrs by FACS analysis (reference value: 19.3%); format: functional
[15] = test system: ME-180; test: Induction of apoptosis in human ME180 cells assessed as mitochondrial membrane depolarization at 1 uM for 24 hrs by using JC-1 dye; format: functional, cell-based
[16] = test system: ME-180; test: Induction of apoptosis in human ME180 cells assessed as viable cells at 1 uM for 24 hrs by annexin V/PI staining based flow cytometry (reference value: 83.1%); format: functional; conditions: ME-180, 24 h, read-out: Activity
[17] = test system: ME-180; test: Induction to apoptosis in human ME180 cells assessed as increase in caspase-3 activity at 1 uM for 48 hrs relative to control; format: functional
[18] = test system: ME-180; test: Induction of apoptosis in human ME180 cells assessed as early apoptotic cells at 1 uM for 24 hrs by annexin V/PI staining based flow cytometry (reference value: 0.2%); format: functional
[19] = test system: ME-180; test: Induction of apoptosis in human ME180 cells assessed as cytoplasmic condensation at 1 uM for 24 hrs by Hoechst staining analysis; format: functional, cell-based
[20] = test system: ME-180; test: Induction of apoptosis in human ME180 cells assessed as presence of apoptotic bodies at 1 uM for 24 hrs by Hoechst staining analysis; format: functional, cell-based
[21] = test system: ME-180; test: Cell cycle arrest in human ME180 cells assessed as accumulation at G1 phase at 0.5 uM after 48 hrs by FACS analysis (reference value: 59.9%); format: functional
[22] = test system: ME-180; test: Induction of apoptosis in human ME180 cells assessed as nuclear fragmentation at 1 uM for 24 hrs by Hoechst staining analysis; format: functional, cell-based
[23] = test system: ME-180; test: Cell cycle arrest in human ME180 cells assessed as accumulation at G2/M phase at <1 uM; format: functional, cell-based

## Cc1nn2c(-c3nc4cc(Cl)c(Cl)cc4[nH]3)c(-c3ccc(F)cc3)nc2s1
[1]
  IC50: 10 µM
[2]
  IC50: 14.2 µM
[3]
  IC50: > 30 µM
[4]
  IC50: > 30 µM

## Cc1nn2c(-c3nc4cc(Cl)c(F)cc4[nH]3)c(-c3ccc(F)cc3)nc2s1
[1]
  IC50: 13.9 µM
[2]
  IC50: 17.7 µM
[3]
  IC50: > 30 µM
[4]
  IC50: > 30 µM

## COc1ccc(-c2nc3sc(C)nn3c2-c2nc3cc(C)c(C)cc3[nH]2)cc1
[1]
  IC50: 12.3 µM
[2]
  IC50: 12.5 µM
[3]
  IC50: 23.3 µM
[4]
  IC50: 16.5 µM

## Cc1nn2c(-c3nc4cc(F)ccc4[nH]3)c(-c3ccccc3)nc2s1
[1]
  IC50: 15.7 µM
[2]
  IC50: 18.1 µM
[3]
  IC50: 16.9 µM
[4]
  IC50: > 30 µM

## Cc1nn2c(-c3nc4cc(Cl)c(Cl)cc4[nH]3)c(-c3ccccc3)nc2s1
[5]
  Activity: Active
[1]
  IC50: 0.5 µM
[6]
  Activity: 22.6%
[7]
  Activity: 1.6%
[2]
  IC50: 2.8 µM
[8]
  Activity: 9.3%
[9]
  Activity: 5.4%
[10]
  Activity: 72.4%
[11]
  Activity: 17.7%
[3]
  IC50: 19.1 µM
[12]
  Activity: 16.3%
[13]
  Activity: 10.4%
[14]
  Activity: 15.7%
[4]
  IC50: 13.6 µM
[15]
  Activity: Active
[16]
  viability at 1 µM: 58.7%
[17]
  fold change (FC): 3
[18]
  Activity: 1%
[19]
  Activity: Active
[20]
  Activity: Active
[21]
  Activity: 68.1%
[22]
  Activity: Active

## COc1cccc2c1C(=O)c1c(O)c3c(c(O)c1C2=O)C[C@@](O)(C(=O)CO)C[C@@H]3O[C@H]1C[C@H](N)[C@H](O)[C@H](C)O1 [DOXORUBICIN]
[5]
  Activity: Active
[1]
  IC50: 0.5 µM
[6]
  Activity: 15.1%
[7]
  Activity: 10.9%
[2]
  IC50: 1.2 µM
[8]
  Activity: 16.1%
[10]
  Activity: 64.8%
[11]
  Activity: 16.8%
[3]
  IC50: 2.4 µM
[12]
  Activity: 7.7%
[4]
  IC50: 1.1 µM
[16]
  viability at 1 µM: 67.5%
[17]
  fold change (FC): 3
[18]
  Activity: 0.7%
[23]
  Activity: Active

## Cc1nn2c(-c3nc4cc(C(F)(F)F)ccc4[nH]3)c(-c3ccc(F)cc3)nc2s1
[1]
  IC50: 5.8 µM
[2]
  IC50: 7.3 µM
[3]
  IC50: 15.8 µM
[4]
  IC50: 12.7 µM

## Cc1nn2c(-c3nc4cc(C)c(C)cc4[nH]3)c(-c3ccc(F)cc3)nc2s1
[1]
  IC50: 6.1 µM
[2]
  IC50: 7.6 µM
[3]
  IC50: > 30 µM
[4]
  IC50: > 30 µM

## Cc1nn2c(-c3nc4cc(O)ccc4[nH]3)c(-c3ccccc3)nc2s1
[1]
  IC50: 16.4 µM
[2]
  IC50: 19.1 µM
[3]
  IC50: 20.6 µM
[4]
  IC50: 19.4 µM

## COc1ccc(-c2nc3sc(C)nn3c2-c2nc3cc(Cl)c(F)cc3[nH]2)cc1
[1]
  IC50: 4.6 µM
[2]
  IC50: 6.8 µM
[3]
  IC50: > 30 µM
[4]
  IC50: 17.9 µM

## Cc1nn2c(-c3nc4cc(Cl)ccc4[nH]3)c(-c3ccccc3)nc2s1
[1]
  IC50: 5.4 µM
[2]
  IC50: 7.7 µM
[3]
  IC50: 25.1 µM
[4]
  IC50: 16.9 µM

## Cc1ccc2[nH]c(-c3c(-c4ccccc4)nc4sc(C)nn34)nc2c1
[1]
  IC50: 15.8 µM
[2]
  IC50: 20.4 µM
[3]
  IC50: 14.4 µM
[4]
  IC50: 12.5 µM

## COc1ccc(-c2nc3sc(C)nn3c2-c2nc3cc(C)ccc3[nH]2)cc1
[1]
  IC50: 8.7 µM
[2]
  IC50: 10.9 µM
[3]
  IC50: 25.1 µM
[4]
  IC50: 18.4 µM

## Cc1nn2c(-c3nc4ccccc4[nH]3)c(-c3ccc(F)cc3)nc2s1
[1]
  IC50: 18.1 µM
[2]
  IC50: 22.2 µM
[3]
  IC50: > 30 µM
[4]
  IC50: > 30 µM

## Cc1nn2c(-c3nc4cc(Cl)ccc4[nH]3)c(-c3ccc(F)cc3)nc2s1
[1]
  IC50: 1.9 µM
[2]
  IC50: 4.8 µM
[3]
  IC50: 14.4 µM
[4]
  IC50: 10.2 µM

## Cc1ccc(-c2nc3sc(C)nn3c2-c2nc3cc(Cl)ccc3[nH]2)cc1
[1]
  IC50: 3.6 µM
[2]
  IC50: 5.01 µM
[3]
  IC50: 7.3 µM
[4]
  IC50: 4.4 µM

## COC(=O)Nc1nc2cc(C(=O)c3cccs3)ccc2[nH]1 [NOCODAZOLE]
[1]
  IC50: 1.7 µM
[2]
  IC50: 0.2 µM
[3]
  IC50: 2.1 µM
[4]
  IC50: 2.5 µM

## COc1ccc(-c2nc3sc(C)nn3c2-c2nc3c(C)c(C)ccc3[nH]2)cc1
[1]
  IC50: 3.7 µM
[2]
  IC50: 5.8 µM
[3]
  IC50: 14.2 µM
[4]
  IC50: 16.2 µM

## Cc1nn2c(-c3nc4cc(C(F)(F)F)ccc4[nH]3)c(-c3ccccc3)nc2s1
[1]
  IC50: 3.9 µM
[2]
  IC50: 5.2 µM
[3]
  IC50: 19.6 µM
[4]
  IC50: 13.6 µM

## Cc1ccc(-c2nc3sc(C)nn3c2-c2nc3cc(C)ccc3[nH]2)cc1
[1]
  IC50: 4.5 µM
[2]
  IC50: 6.1 µM
[3]
  IC50: 10.7 µM
[4]
  IC50: 9.8 µM

## COc1ccc(-c2nc3sc(C)nn3c2-c2nc3cc(Cl)ccc3[nH]2)cc1
[1]
  IC50: 2.6 µM
[2]
  IC50: 4.3 µM
[3]
  IC50: 15.8 µM
[4]
  IC50: 7.9 µM

## Cc1ccc(-c2nc3sc(C)nn3c2-c2nc3c(C)c(C)ccc3[nH]2)cc1
[1]
  IC50: 9.7 µM
[2]
  IC50: 11.4 µM
[3]
  IC50: 12.5 µM
[4]
  IC50: 10.3 µM

## Cc1ccc2[nH]c(-c3c(-c4ccc(F)cc4)nc4sc(C)nn34)nc2c1
[1]
  IC50: 6.6 µM
[2]
  IC50: 7.7 µM
[3]
  IC50: 19.9 µM
[4]
  IC50: 11.7 µM

## Cc1nn2c(-c3nc4c(C)c(C)ccc4[nH]3)c(-c3ccccc3)nc2s1
[1]
  IC50: 15.8 µM
[2]
  IC50: 22.9 µM
[3]
  IC50: > 30 µM
[4]
  IC50: 18.4 µM

## Cc1ccc(-c2nc3sc(C)nn3c2-c2nc3cc(Cl)c(F)cc3[nH]2)cc1
[5]
  Activity: Active
[1]
  IC50: 0.7 µM
[6]
  Activity: 16.5%
[7]
  Activity: 2.3%
[2]
  IC50: 1.04 µM
[8]
  Activity: 10.1%
[9]
  Activity: 14.1%
[10]
  Activity: 75.7%
[11]
  Activity: 9.6%
[3]
  IC50: 11.8 µM
[12]
  Activity: 11.6%
[13]
  Activity: 6.7%
[14]
  Activity: 12.3%
[4]
  IC50: 10.3 µM
[15]
  Activity: Active
[16]
  viability at 1 µM: 73.1%
[17]
  fold change (FC): 3
[18]
  Activity: 0.8%
[19]
  Activity: Active
[20]
  Activity: Active
[21]
  Activity: 66.6%
[22]
  Activity: Active

## Cc1nn2c(-c3nc4cc(Cl)c(F)cc4[nH]3)c(-c3ccccc3)nc2s1
[1]
  IC50: 16.9 µM
[2]
  IC50: 20.8 µM
[3]
  IC50: > 30 µM
[4]
  IC50: 16.4 µM

## Cc1nn2c(-c3nc4cc(C)c(C)cc4[nH]3)c(-c3ccccc3)nc2s1
[1]
  IC50: 19.9 µM
[2]
  IC50: 22.5 µM
[3]
  IC50: 19.8 µM
[4]
  IC50: > 30 µM

## Cc1nn2c(-c3nc4ccccc4[nH]3)c(-c3ccccc3)nc2s1
[1]
  IC50: 16.9 µM
[2]
  IC50: 19.9 µM
[3]
  IC50: > 30 µM
[4]
  IC50: 16.6 µM
